Bridge positions count the residues as written; N and C are the ends. Square brackets hold non-standard residues; d marks the D form. Peptide text beside a SMILES is read from it. R8 = C=CCCCCCC[C@@](C)(N)C(=O)O; S5 = C=CCCC[C@](C)(N)C(=O)O; Nle = CCCC[C@H](N)C(=O)O
Assays:
[1] = biological target: T1, flag-tagged HIF1α (AA 786-826) / His6-tagged p300 (AA 323-423) complex (Homo sapiens, UniProt Q09472); assay: HIF1α p300 displacement assay (TR FRET, +CHAPS); format: binding; conditions: read-out: IC50 (nM) (HIF1α_p300 Displacement + CHAPS)
T1 construct: His6-tagged p300 (AA 323-423); made in house; host or cells: E. coli (pETDuet vector)
In short: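 In this TR-FRET displacement format, peptides compete HIF1α C-terminal transactivation domain off p300-CH. They were preincubated 1 h at room temperature with 300 nM complex in HEPES pH 7.4/NaCl buffer with 7.5 mM CHAPS and 1 mM DTT. Anti-His-D2 (4 nM) and anti-Flag-K (0.5 μM) followed for 2 h, and a one-site fit of the fluorescence ratio gave IC50.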

HRE-bla ME-180 cells [2] = assay: Reporter gene assay (HRE-bla ME-180 HIF reporter, GeneBLAzer); format: cell-based, human; conditions: for EC50: 24 hour normoxia
In short: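 A FRET β-lactamase readout of HIF transcription was used. After compound treatment in 0.3% DMSO/media under normoxic conditions, 20 μl of 6× LiveBLAzer-FRET B/G (CCF4-AM) substrate was added. Plates sat 3 hr at room temperature in the dark and were read at 409 Ex/460Em and 409Ex/530Em on a Synergy 2. Inhibition was compared against DMSO vehicle controls, with chetomin as positive control.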

HRE-bla ME-180 cells [3] = assay: Cell proliferation assay (viability, MTT, 1% FBS); format: cell-based, human
In short: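 Viable cell number was measured with the CellTiter 96 (MTT) kit after compounds were applied for a 16 h normoxic (21% O2) pretreatment, followed by further normoxic or hypoxic (1% O2) culture. Cells: 2×10^4 ME-180 per well, Opti-MEM + 1% FBS, 0.5% DMSO vehicle.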

Row | SMILES | IC50 [1] [nM] | 18 h Avg % max inhibition at top conc (HIF Rptr-24 hrs normoxia) (μM) (HRE-bla ME-180 cells [2]) | EC50 (HRE-bla ME-180 cells [2]) [µM] | Viability 1% FBS AVG (MTT V3-24 hr Normoxia) (μM) (HRE-bla ME-180 cells [3])
1 | CCCC[C@H](NC(=O)[C@H](CCC(=O)O)NC(=O)[C@]1(C)CCCC=CCCCCCC[C@@](C)(NC(=O)[C@H](CCC(=O)O)NC(=O)[C@H](CC(=O)O)NC(=O)[C@@H](NC(=O)[C@H](CC(N)=O)NC(=O)[C@@H](NC(=O)[C@]2(C)CCCC=CCCCCCC[C@@](C)(NC(=O)[C@H](CCC(=O)O)NC(=O)CNC(=O)[C@H](CCC(N)=O)NC(=O)[C@H](CC(C)C)NC(=O)[C@H](CC(C)C)NC(C)=O)C(=O)N[C@@H](CC(C)C)C(=O)N[C@@H](CC(C)C)C(=O)N[C@@H](CCCNC(=N)N)C(=O)N[C@@H](C)C(=O)N[C@@H](CC(C)C)C(=O)N[C@@H](C)C(=O)N2)C(C)C)[C@@H](C)CC)C(=O)N[C@@H](C(C)C)C(=O)N[C@@H](CC(C)C)C(=O)N[C@@H](CCCC)C(=O)N[C@@H](CO)C(=O)N[C@@H](CC(C)C)C(=O)N[C@@H](C(C)C)C(=O)N1)C(N)=O [SP-354] (Ac-LLQGE[R8]LLRALA[S5]VNIDE[R8]VL[Nle]SLV[S5]E[Nle]-NH2; staple 6-13, 19-26) | 200 to 400 | +++ (≤25 but <50: +++) | > 30 | ++++ (≥30: ++++)
2 | CCCC[C@H](NC(=O)[C@H](Cc1ccccc1)NC(=O)[C@@H](NC(=O)[C@H](CCC(=O)O)NC(=O)[C@H](CCC(=O)O)NC(=O)[C@H](CC(=O)O)NC(=O)[C@@H](NC(C)=O)[C@@H](C)CC)C(C)C)C(=O)N[C@@]1(C)CCCC=CCCC[C@@](C)(C(=O)N[C@@H](CCCC)C(=O)N[C@@H](C)C(=O)N[C@@H](CC(C)C)C(=O)N[C@@H](CC(C)C)C(N)=O)NC(=O)[C@H]([C@@H](C)CC)NC(=O)[C@H](C(C)C)NC(=O)[C@H](CC(C)C)NC1=O [SP-243] (Ac-IDEEVF[Nle][S5]LVI[S5][Nle]ALL-NH2; staple 8-12) | 400 to 700 | ++++ (≥50: ++++) | 15 to 30 | ++++ (≥30: ++++)
3 | CCCC[C@H](NC(=O)[C@H](CCC(=O)O)NC(=O)[C@]1(C)CCCC=CCCCCCC[C@@](C)(NC(=O)[C@H](CCC(=O)O)NC(=O)[C@H](CC(=O)O)NC(=O)[C@@H](NC(=O)[C@H](CC(N)=O)NC(=O)[C@@H](NC(=O)[C@H](CCC(N)=O)NC(=O)[C@]2(C)CCCC=CCCC[C@](C)(NC(=O)[C@H](CC(C)C)NC(=O)[C@H](CCC(=O)O)NC(=O)[C@H](C)NC(=O)CNC(=O)[C@H](CCC(N)=O)NC(=O)[C@H](CC(C)C)NC(=O)[C@H](CC(C)C)NC(C)=O)C(=O)N[C@@H](CCCNC(=N)N)C(=O)N[C@@H](C)C(=O)N[C@@H](CC(C)C)C(=O)N2)C(C)C)[C@@H](C)CC)C(=O)N[C@@H](C(C)C)C(=O)N[C@@H](CC(C)C)C(=O)N[C@@H](CCCC)C(=O)N[C@@H](CO)C(=O)N[C@@H](CC(C)C)C(=O)N[C@@H](C(C)C)C(=O)N1)C(N)=O [SP-360] (Ac-LLQGAEL[S5]RAL[S5]QVNIDE[R8]VL[Nle]SLV[S5]E[Nle]-NH2; staple 8-12, 19-26) | 200 to 400 | ++ (≤10 but <25: ++) | > 30 | ++++ (≥30: ++++)
4 | CC[C@H](C)[C@H](NC(=O)[C@H](C)NC(C)=O)C(=O)N[C@@H](CC(=O)O)C(=O)N[C@@H](CCC(=O)O)C(=O)N[C@@H](CCC(=O)O)C(=O)N[C@H](C(=O)N[C@@H](CC(C)C)C(=O)N[C@@H](CCSC)C(=O)N[C@@]1(C)CCCC=CCCC[C@@](C)(C(=O)N[C@@H](CCSC)C(=O)N[C@@H](C)C(=O)N[C@@H](CC(C)C)C(N)=O)NC(=O)[C@H]([C@@H](C)CC)NC(=O)[C@H](C(C)C)NC(=O)[C@H](CC(C)C)NC1=O)C(C)C [SP-217] (Ac-AIDEEVLM[S5]LVI[S5]MAL-NH2; staple 9-13) | > 700 | +++ (≤25 but <50: +++) | > 30 | ++++ (≥30: ++++)
5 | CCCC[C@@H]1NC(=O)[C@H](CC(C)C)NC(=O)[C@H](C(C)C)NC(=O)[C@@](C)(NC(=O)[C@H](CCC(=O)O)NC(=O)[C@H](CC(=O)O)NC(=O)[C@@H](NC(=O)[C@H](Cc2ccccc2)NC(C)=O)[C@@H](C)CC)CCCC=CCCCC2(CCCC=CCCC[C@](C)(C(=O)N[C@@H](CCC(N)=O)C(=O)N[C@@H](C)C(=O)N[C@@H](CC(C)C)C(N)=O)NC(=O)[C@H]([C@@H](C)CC)NC(=O)[C@H](C(C)C)NC(=O)[C@H](CC(C)C)NC2=O)NC1=O (stereo partly shown) [SP-212] | 200 to 400 | ++++ (≥50: ++++) | 5 to 15 | ++ (≤5 but <15: ++)
6 | CCCC[C@H](NC(=O)[C@]1(C)CCCC=CCCC[C@](C)(NC(=O)[C@H](C)NC(=O)[C@H](Cc2ccccc2)NC(=O)[C@@H](NC(=O)[C@H](CCC(=O)O)NC(=O)[C@H](CCC(=O)O)NC(=O)[C@H](CC(=O)O)NC(=O)[C@@H](NC(=O)[C@H](Cc2ccccc2)NC(C)=O)[C@@H](C)CC)C(C)C)C(=O)N[C@@H](CC(C)C)C(=O)N[C@@H](C(C)C)C(=O)N[C@@H]([C@@H](C)CC)C(=O)N1)C(=O)N[C@@H](C)C(=O)N[C@@H](CC(C)C)C(=O)N[C@@H](CC(C)C)C(N)=O [SP-246] (Ac-FIDEEVFA[S5]LVI[S5][Nle]ALL-NH2; staple 9-13) | > 700 | + (<10: +) | > 30 | ++++ (≥30: ++++)
7 | CC[C@H](C)[C@H](NC(=O)[C@H](Cc1ccccc1)NC(C)=O)C(=O)N[C@@H](CC(=O)O)C(=O)N[C@@H](CCC(=O)O)C(=O)N[C@@]1(C)CCCC=CCCC[C@@](C)(C(=O)N[C@@H](CC(C)C)C(=O)N[C@H](C(=O)N[C@H](C(=O)N[C@@H](CCC(=O)O)C(=O)N[C@@H](CCSC)C(=O)NCC(=O)N[C@@H](CC(C)C)C(=O)N[C@@H](CC(=O)O)C(=O)N[C@@H](CCCNC(=N)N)C(=O)N[C@H](C(=O)N[C@@H](CCCCN)C(=O)N[C@@H](CCC(=O)O)C(=O)N[C@@H](CC(C)C)C(=O)N2CCC[C@H]2C(=O)N[C@@H](CCC(=O)O)C(=O)N[C@@H](CC(C)C)C(=O)N[C@@H](Cc2c[nH]c3ccccc23)C(=O)N[C@@H](CC(C)C)C(N)=O)[C@@H](C)CC)[C@@H](C)CC)C(C)C)NC(=O)[C@H](CCSC)NC(=O)[C@H](CC(C)C)NC(=O)[C@H](C(C)C)NC1=O [SP-104] (Ac-FIDE[S5]VLM[S5]LVIEMGLDRIKELPELWL-NH2; staple 5-9) | 200 to 400 | ++++ (≥50: ++++) | 5 to 15 | ++++ (≥30: ++++)
8 | CCCC[C@H](NC(=O)[C@H](C)NC(=O)[C@H](CCSC)NC(=O)[C@]1(C)CCCC=CCCC[C@](C)(NC(=O)[C@H](CCSC)NC(=O)[C@H](CC(C)C)NC(=O)[C@@H](NC(=O)[C@H](CCC(=O)O)NC(=O)[C@H](CCC(=O)O)NC(=O)[C@H](CC(=O)O)NC(=O)[C@@H](NC(=O)[C@H](Cc2ccccc2)NC(C)=O)[C@@H](C)CC)C(C)C)C(=O)N[C@@H](CC(C)C)C(=O)N[C@@H](C(C)C)C(=O)N[C@@H]([C@@H](C)CC)C(=O)N1)C(N)=O [SP-227] (Ac-FIDEEVLM[S5]LVI[S5]MA[Nle]-NH2; staple 9-13) | > 700 | ++ (≤10 but <25: ++) | > 30 | ++++ (≥30: ++++)
9 | CC[C@H](C)[C@H](NC(=O)[C@H](Cc1ccccc1)NC(C)=O)C(=O)N[C@@H](CC(=O)O)C(=O)N[C@@H](CCC(=O)O)C(=O)N[C@@H](CCC(=O)O)C(=O)N[C@H](C(=O)N[C@@H](CC(C)C)C(=O)N[C@@H](CCSC)C(=O)N[C@@]1(C)CCCC=CCCC[C@@](C)(C(=O)N[C@@H](CCSC)C(=O)N[C@@H](C)C(=O)N[C@@H](Cc2ccccc2)C(N)=O)NC(=O)[C@H]([C@@H](C)CC)NC(=O)[C@H](C(C)C)NC(=O)[C@H](CC(C)C)NC1=O)C(C)C [SP-226] (Ac-FIDEEVLM[S5]LVI[S5]MAF-NH2; staple 9-13) | 400 to 700 | ++ (≤10 but <25: ++) | > 30 | ++++ (≥30: ++++)
10 | CCCC[C@@H]1NC(=O)[C@H](CC(C)C)NC(=O)[C@](C)(NC(=O)[C@H](CCC(=O)O)NC(=O)[C@H](CCC(=O)O)NC(=O)[C@H](CC(=O)O)NC(=O)[C@@H](NC(=O)[C@H](CC(N)=O)NC(=O)[C@@H](NC(=O)[C@H](CCC(N)=O)NC(=O)[C@H](CC(=O)O)NC(=O)[C@H](CC(C)C)NC(=O)[C@]2(C)CCCC=CCCC[C@](C)(NC(=O)[C@H](CCC(=O)O)NC(=O)CNC(=O)[C@H](CCC(N)=O)NC(=O)[C@H](CC(C)C)NC(=O)[C@H](CC(C)C)NC(C)=O)C(=O)N[C@@H](CC(C)C)C(=O)N[C@@H](CC(C)C)C(=O)N[C@@H](CCCNC(=N)N)C(=O)N2)C(C)C)[C@@H](C)CC)CCCCCCC=CCCC[C@@](C)(C(=O)N[C@@H](CCCC)C(=O)NCC(N)=O)NC(=O)[C@H]([C@@H](C)CC)NC(=O)[C@H](C(C)C)NC(=O)[C@H](CC(C)C)NC(=O)[C@H](CO)NC1=O [SP-330] (Ac-LLQGE[S5]LLR[S5]LDQVNIDEE[R8]L[Nle]SLVI[S5][Nle]G-NH2; staple 6-10, 20-27) | > 700 | + (<10: +) | > 30 | ++++ (≥30: ++++)

From patent publication US20190225650A1, “PEPTIDOMIMETIC MACROCYCLES AND USE THEREOF IN REGULATING HIF1ALPHA” (AILERON THERAPEUTICS, INC., priority 2013, published 2019)
